The CheMixHub viscosity set

Assay: xn = mol fraction of the nth substance listed

CCCCCCCCCCCO + CCCCCCCCO
viscosity [mPa·s]
Conditions	293.15 K	298.15 K	308.15 K	318.15 K
101 kPa, x2 = 0.1003	–	13.35	–	–
101 kPa, x2 = 0.6998	10.95	–	–	–
101.8 kPa, x2 = 0.1273	–	13.25	9.151	6.474
101.8 kPa, x2 = 0.3622	–	11.61	8.096	5.781
101.8 kPa, x2 = 0.5698	–	10.24	7.208	5.187
101.8 kPa, x2 = 0.756	–	9.094	6.447	4.673
101.8 kPa, x2 = 0.9212	–	7.658	5.5	4.027

CCCCCCCCCCCO + CCCCCCCO
viscosity [mPa·s]
Conditions	x2 = 0.1397	x2 = 0.2254	x2 = 0.388	x2 = 0.5976	x2 = 0.7764	x2 = 0.9311
293.15 K, 101 kPa	–	14.95	–	–	–	–
298.15 K, 101.8 kPa	12.82	–	10.49	8.805	7.365	6.099
308.15 K, 101.8 kPa	8.867	–	7.363	6.26	5.311	4.433
318.15 K, 101.8 kPa	6.299	–	5.309	4.554	3.906	3.289

CC(C)NC(C)C + CCCCCCO
viscosity [mPa·s], 101 kPa
Conditions	298.15 K	303.15 K	308.15 K
x1 = 0.0503	3.969	3.366	2.859
x1 = 0.1067	3.51	3.018	2.588
x1 = 0.1499	3.195	2.751	2.379
x1 = 0.2041	2.823	2.438	2.114
x1 = 0.253	2.501	2.171	1.901
x1 = 0.3054	2.188	1.9	1.675
x1 = 0.4026	1.665	1.475	1.318
x1 = 0.4986	1.272	1.156	1.046
x1 = 0.6007	0.952	0.883	0.813
x1 = 0.7077	0.718	0.675	0.628
x1 = 0.7994	0.582	0.547	0.514
x1 = 0.8518	0.52	0.492	0.462
x1 = 0.9021	0.471	0.443	0.42
x1 = 0.9545	0.42	0.401	0.378

CCCCCCCCCCCO + CCCCCCO
viscosity [mPa·s], 101.8 kPa
Conditions	x2 = 0.1577	x2 = 0.4196	x2 = 0.6279	x2 = 0.7981	x2 = 0.9389
298.15 K	12.3	9.508	7.506	6.064	4.788
308.15 K	8.55	6.727	5.412	4.436	3.545
318.15 K	6.083	4.876	3.983	3.309	2.68

CCOC(=O)CC(C)=O + CCCCCCO
viscosity [mPa·s], 100 kPa
Conditions	x1 = 0.1053	x1 = 0.1983	x1 = 0.2962	x1 = 0.3947	x1 = 0.4947	x1 = 0.5989	x1 = 0.6989	x1 = 0.7954	x1 = 0.892
293.15 K	3.828	3.026	2.545	2.245	2.034	1.867	1.749	1.688	1.655
298.15 K	3.286	2.644	2.285	2.022	1.809	1.651	1.571	1.555	1.538

CCCCCCn1cc[n+](C)c1.[Cl-] + CCCCCCn1cc[n+](C)c1.F[B-](F)(F)F
101 kPa
Conditions	viscosity [mPa·s]
303.15 K, x1 = 0.2	375.2
303.15 K, x1 = 0.4	795.2
308.15 K, x1 = 0.4	552.8
313.15 K, x1 = 0.4	394.5
318.15 K, x1 = 0.6	563.8
323.15 K, x1 = 0.6	403.5
323.15 K, x1 = 0.8	843.9

CCOC(=O)CC(C)=O + CCCCCO
viscosity [mPa·s], 100 kPa
Conditions	x1 = 0.0902	x1 = 0.1791	x1 = 0.2695	x1 = 0.3621	x1 = 0.4424	x1 = 0.5633	x1 = 0.6447	x1 = 0.7739	x1 = 0.8864
293.15 K	2.988	2.424	2.132	1.935	1.8	1.67	1.635	1.603	1.599
298.15 K	2.691	2.191	1.897	1.705	1.602	1.52	1.491	1.481	1.468

NCc1ccccc1 + CCCCCO
viscosity [mPa·s], 101.33 kPa
Conditions	x1 = 0.1	x1 = 0.2004	x1 = 0.2999	x1 = 0.4	x1 = 0.4997	x1 = 0.6	x1 = 0.7003	x1 = 0.8	x1 = 0.8999
298.15 K	3.257	3.009	2.798	2.599	2.419	2.25	2.088	1.943	1.808
303.15 K	2.82	2.607	2.436	2.25	2.124	1.971	1.842	1.72	1.616
308.15 K	2.406	2.283	2.133	1.979	1.841	1.734	1.624	1.526	1.454

C=CCc1ccc(O)c(OC)c1 + CCCCCOC(C)=O
298.15 K, 101 kPa
Conditions	viscosity [mPa·s]
x1 = 0.1	0.698
x1 = 0.162	1.11

O=[N+]([O-])c1cccc(O)c1 + CCCCCOC(C)=O
Conditions	viscosity [mPa·s]
298.15 K, 101 kPa, x1 = 0.5	1.449

NCc1ccccc1 + CCCCN
viscosity [mPa·s], 100 kPa
Conditions	x2 = 0.1	x2 = 0.2	x2 = 0.3	x2 = 0.4	x2 = 0.5	x2 = 0.6	x2 = 0.7	x2 = 0.8	x2 = 0.9
303.15 K	1.324	1.204	1.068	0.964	0.847	0.748	0.654	0.578	0.513
313.15 K	1.125	1.021	0.929	0.835	0.737	0.642	0.567	0.506	0.45
323.15 K	0.965	0.878	0.791	0.718	0.639	0.567	0.5	0.446	0.396

CCOC(=O)CC(C)=O + CCCCO
viscosity [mPa·s], 100 kPa
Conditions	x1 = 0.077	x1 = 0.1552	x1 = 0.2375	x1 = 0.324	x1 = 0.4191	x1 = 0.5209	x1 = 0.6261	x1 = 0.74	x1 = 0.861
293.15 K	2.378	2.032	1.795	1.639	1.567	1.564	1.56	1.565	1.603
298.15 K	2.063	1.788	1.629	1.525	1.466	1.435	1.425	1.427	1.46

OCCO + CCCCO
298 K, 101.33 kPa
Conditions	viscosity [mPa·s]
x1 = 0.1527	3.18
x1 = 0.5229	6.05
x1 = 0.7115	8.75
x1 = 0.868	12.33
